Results on one molecule are retold here after patent US20230183187A1, “QUINAZOLINE COMPOUNDS AS INHIBITORS OF PREMATURE TERMINATION CODONS” (CENTRE NATIONAL DE LA RECHERCHE SCIENTIFIQUE, priority 2020, published 2023).

In series [1] the test system is TP53 R213X nonsense mutation. Nature of the series: Dual reporter (lacZ/F-luc, pAC99) stop codon readthrough quantification, R213X, NIH3T3 cells. Particulars: 24 h, each drug separately or together. It counts as cell-based, mouse. From the text:
(§1) Complementary oligonucleotides corresponding to TP53 R213X nonsense mutations and 9 nucleotides on both sides are ligated into the pAC99 dual reporter plasmid, as previously described (Premature stop codons involved in muscular dystrophies show a broad spectrum of readthrough efficiencies in response to gentamicin treatment, Bidou et al, Gene Therapy 1 Apr. 2004, 11(7):619-627). This dual reporter is used to quantify stop-codon readthrough through the measurement of luciferase and beta-galactosidase (internal calibration) activities, as previously described (Stahl et al, Versatile vectors to study recoding: conservation of rules between yeast and mammalian cells. Nucleic Acids Res 1995; 23:1557-60). Readthrough levels for nonsense mutations were analysed in the presence or absence of tested molecules. Cells were seeded in a 6-well plate. The next day, cells are transfected with the reporter plasmid in the presence of JetPei reagent (Invitrogen). The following day, they are rinsed with fresh medium, with or without readthrough inducers. […] Readthrough efficiency was estimated by calculating the ratio of luciferase activity to beta-galactosidase activity obtained with the test construct, with normalisation against an in-frame control construct. […]

In another series the test system is HDQ-P1 cells. Nature of the series: WST1 tetrazolium viability assay, HDQ-P1. It counts as cell-based, human. The settings on record: HDQ-P1, 24 h, maximal dose used. As for the experimental part: The inventors tested the effect of TLN68 on viability of NIH3T3, HDQ-P1 and HeLa cell lines by using a tetrazolium salt which is cleaved only by metabolically active cells. Cells were treated or not with a range of TLN68 doses during 24 h and viability was measured.

In another series the test system is nonsense mutation W1268X. The experiment in a line: pAC99 dual reporter readthrough in HeLa cells, W1268X. It counts as cell-based, human. Particulars: 24 hours. Here is the method:
Different compounds of the invention have been tested for their ability to induce readthrough on the nonsense mutation W1268X or R213X in HeLa cells.
To this aim the inventors used the pAC99 dual reporter plasmid. This dual reporter is used to quantify stop-codon readthrough through the measurement of luciferase and beta-galactosidase (internal normalisation) activities. Readthrough levels for nonsense mutations were analysed in the presence or absence of tested molecules. Cells are seeded in a 6-well plate. The next day, cells are transfected with the reporter plasmid using the JetPei reagent (Invitrogen). The following day, they are rinsed with fresh medium, with or without readthrough inducers. Cells were harvested 24 hours later, with trypsin—EDTA (Invitrogen), lysed with Glo lysis buffer (Promega) and beta-galactosidase and luciferase activities were assayed as previously described. Readthrough efficiency was estimated by calculating the ratio of luciferase activity to beta-galactosidase activity obtained with the test construct, with normalisation against an in-frame control construct. At least five independent transfection experiments were performed for each assay.

Series [2] has as its system -1 programmed ribosomal frameshifting from HIV-1. The experiment in a line: Frameshifting test, dual reporter, NIH3T3 cells. It counts as cell-based, mouse. Particulars: NIH3T3, TLN68 80 μM, HIV-1 frameshift signal. As for the experimental part: To determinate if TLN68 alter global translational fidelity or if it is specific of readthrough event the inventors tested capacity of this molecule to induce frameshifting. They used a frameshift target which have already been used to study the minus1 frameshift signal of the retrovirus HIV-1 (Stahl et al, 1995). This 54 nucleotide sequence was inserted in the dual reporter vector and used to transfect NIH3T3 cells. Transfected cells were treated or not with TLN68 at 80 μM.

Series [3] has as its system 40 more frequent nonsense mutations found in DMD gene. The experiment in a line: Dual reporter readthrough on the 40 most frequent DMD nonsense mutations. It counts as cell-based. Further details: number of DMD nonsense sequences on which readthrough is promoted: dose or concentration left out as unconfirmed.
From the text: as §1, with “The next day, cells are transfected with the reporter plasmid in the presence of JetPei reagent (Invitrogen).” left out
Each nonsense mutation (+9 nucleotides in each side) has been cloned into the dual reporter previously used. Stop codon readthrough efficiency has been quantified either without drug or in presence of gentamicin or TLN68, in 6 independent experiments. […]

As for `Cc1nc(NC(=N)N)nc2ccccc12` [TLN68], in series [1], the readthrough level came out at 11%. In the series with HDQ-P1 cells, this molecule displayed a viable cells of 70%. For the same molecule, the “Inducting factor of readthrough as compared to untreated cells (measured on nonsense mutation W1268X)” value in the series with nonsense mutation W1268X amounted to 9. Further, in series [2], the “impact on -1 translational frameshifting” value is recorded as “no impact on translational frameshifting”. Also, the “readthrough compared with gentamicin on the DMD set of sequences” value in series [3] (gentamicin 2.5 mM, same conditions) was “outperforms gentamicin”. Also, the “number of DMD nonsense sequences on which readthrough is promoted” value in series [3] (out of 40 tested, 6 independent experiments) turned out to be 28.
